# Source: US6716574B2, “Osp-C derived peptide fragments” (Dako A/S, priority 1996, dated 2004)
# Square brackets hold non-standard residues; d marks the D form. Thz = O=C(O)[C@@H]1CSCN1
# Test system: polyclonal anti-OspC antibodies (IgM) in sera from LB patients
# Test: Inhibition of binding of anti-OspC antibodies in patient sera to rOspC-coated ELISA plates
# Set-up: species or system human
# Settings: for number of sera in which binding to rOspCfl was inhibited: of 5 antisera
# From the text: Therefore, a set of experiments have been carried out where the ability have been tested of a number of analogues of the C-terminus of SEQ ID NO: 3 to inhibit the immune reactivity between rOspCfl and selected antisera in an ELISA. More specifically, the ability of the various analogues to inhibit the binding of polyclonal anti-OspC antibodies in solution was examined in sera from LB patients to rOspC-coated ELISA plates.
# The immunoreactivity to OspC was specified by using six randomly selected NB sera with an OD>1.5 in the IgM rOspC ELISA. The respective serum dilutions were determined, based on a serum dilution curve obtained in the IgM rOspC ELISA, for each of the six sera. The highest dilution, which still achieved the maximal OD value was used. 5 sera were diluted 1:200, and one serum 1:1000. The sera were diluted in the buffer used for the IgM rOspC ELISAs.
# The affinity of the OspC derivatives was measured by incubation of each of the six sera with the respective OspC derivatives at 10 different dilutions (covering a two-fold range) overnight at 4° C. The rOspC ELISA was then performed as described previously, in order to determine the effect of the IgM binding to OspC.
substance,measurement,setting,value
"9-arg: variant of SEQ ID NO: 1 in which 9-lys was substituted with 9-arg (PVVAESPKRP; FRAGMENT TYPE C-terminal; STRAIN DK6, INDIVIDUAL ISOLATE BN1068; listed as Borrelia garinii)",ability to inhibit binding between rOspCfl and the 5 antisera,,no effect
NH2-AVVAESPKKP-COOH (H-AVVAESPKKP-OH) [SEQ ID NO: 32],ability to inhibit binding between rOspCfl and the 5 antisera,,capable of inhibiting binding
NH2-PAVAESPKKP-COOH (H-PAVAESPKKP-OH) [SEQ ID NO: 31],ability to inhibit binding between rOspCfl and the 5 antisera,,capable of inhibiting binding
NH2-PKKP-COOH (H-PKKP-OH) [SEQ ID NO: 22],patient sera in which binding between rOspCfl and antibodies was inhibited,six NB sera with OD>1.5 in the IgM rOspC ELISA,one single serum
NH2-PPPPESPKKP-COOH (H-PPPPESPKKP-OH) [SEQ ID NO: 39],inhibition,Serum 1,70% inhibition
same,inhibition,Serum 2,100% inhibition
same,inhibition,Serum 3,100% inhibition
same,inhibition,Serum 4,0% inhibition
same,inhibition,Serum 5,40% inhibition
NH2-PVAAESPKKP-COOH (H-PVAAESPKKP-OH) [SEQ ID NO: 30],ability to inhibit binding between rOspCfl and the 5 antisera,,capable of inhibiting binding
NH2-PVVAASPKKP-COOH (H-PVVAASPKKP-OH) [SEQ ID NO: 28],ability to inhibit binding between rOspCfl and the 5 antisera,,capable of inhibiting binding
NH2-PVVAEAPKKP-COOH (H-PVVAEAPKKP-OH) [SEQ ID NO: 27],ability to inhibit binding between rOspCfl and the 5 antisera,,capable of inhibiting binding
NH2-PVVAES*KKP-COOH (H-PVVAES[Thz]KKP-OH; SMILES CC(C)[C@H](NC(=O)[C@@H]1CCCN1)C(=O)N[C@H](C(=O)N[C@@H](C)C(=O)N[C@@H](CCC(=O)O)C(=O)N[C@@H](CO)C(=O)N1CSC[C@H]1C(=O)N[C@@H](CCCCN)C(=O)N[C@@H](CCCCN)C(=O)N1CCC[C@H]1C(=O)O)C(C)C) [* designates L-thiazolidine-4-carboxylic acid],number of sera in which binding to rOspCfl was inhibited,,5 sera
NH2-PVVAESAKKP-COOH (H-PVVAESAKKP-OH) [SEQ ID NO: 26],number of sera in which binding to rOspCfl was inhibited,,1 sera
NH2-PVVAESPAKP-COOH (H-PVVAESPAKP-OH) [SEQ ID NO: 25],number of sera in which binding to rOspCfl was inhibited,,3 sera
NH2-PVVAESPKAP-COOH (H-PVVAESPKAP-OH) [SEQ ID NO: 24],number of sera in which binding to rOspCfl was inhibited,,1 sera
NH2-PVVAESPKKA-COOH (H-PVVAESPKKA-OH) [SEQ ID NO: 23],number of sera in which binding to rOspCfl was inhibited,,0 sera
NH2-PVVAESPKKP-CONH2 (H-PVVAESPKKP-NH2) [SEQ ID NO: 33],ability to inhibit binding between rOspCfl and the 5 antisera,,incapable of inhibiting binding
NH2-PVVAESPKNP-COOH (H-PVVAESPKNP-OH) [SEQ ID NO: 38],inhibition,Serum 1,50% inhibition
same,inhibition,Serum 2,0% inhibition
same,inhibition,Serum 3,0% inhibition
same,inhibition,Serum 4,0% inhibition
same,inhibition,Serum 5,0% inhibition
NH2-PVVFESPKKP-COOH (H-PVVFESPKKP-OH) [SEQ ID NO: 29],ability to inhibit binding between rOspCfl and the 5 antisera,,capable of inhibiting binding
NH2-PVVPESPKKP-COOH (H-PVVPESPKKP-OH) [SEQ ID NO: 37],inhibition,Serum 1,70% inhibition
same,inhibition,Serum 2,100% inhibition
same,inhibition,Serum 3,100% inhibition
same,inhibition,Serum 4,0% inhibition
same,inhibition,Serum 5,40% inhibition
